Marks after values point to notes of the source that are not given here.
Assays:
Assay type in all cases: in vivo
Conditions in all cases: 120 mg/kg po; estradiol 0.03 μg/head sc
[1] = test system: OVX ddY mice; assay: Body weight and food consumption in OVX ddY mice, once daily for 84 days
Method: That is, the experiment was performed after dividing into sterile distilled water 10 ml/kg administered vehicle control after sham surgery (hereinafter sham control), sterile distilled water 10 ml/kg administered vehicle control after OVX surgery (hereinafter OVX control), pomegranate extract single formula 120 mg/kg administered group (PCP) after OVX, and 9 types of red clover:pomegranate extract mixed formula (g/g) administered groups after OVX surgery including red clover:pomegranate extract 1:1 (g/g) mixed formula 120 mg/kg administered group after OVX surgery (1-1), red clover:pomegranate extract 1:2 (g/g) mixed formula 120 mg/kg administered group after OVX surgery (1-2), red clover:pomegranate extract 1:4 (g/g) mixed formula 120 mg/kg administered group after OVX surgery (1-4), red clover:pomegranate extract 1:6 (g/g) mixed formula 120 mg/kg administered group after OVX surgery (1-6), red clover:pomegranate extract 1:8 (g/g) mixed formula 120 mg/kg administered group after OVX surgery (1-8), red clover:pomegranate extract 2:1 (g/g) mixed formula 120 mg/kg administered group after OVX surgery (2-1), red clover:pomegranate extract 4:1 (g/g) mixed formula 120 mg/kg administered group after OVX surgery (4-1), red clover:pomegranate extract 6:1 (g/g) mixed formula 120 mg/kg administered group after OVX surgery (6-1), and red clover:pomegranate extract 8:1 (g/g) mixed formula 120 mg/kg administered group after OVX surgery (8-1).
(§1) Optimal amounts of red clover extract or pomegranate extract were suspended or dissolved in sterile distilled water, and orally administered at a dose of 10 ml/kg once daily for 84 days from 28 days after OVX. That is, red clover extract and pomegranate extract single formula, and red clover:pomegranate extract 1:1, 1:2, 1:4, 1:6, 1:8, 2:1, 4:1, 6:1 and 8:1 (g/g) mixture 120 mg/kg were each orally administered for 84 days, and sham control and OVX control were orally administered with only sterile distilled water as a vehicle at the same dose for the same period instead of the test material, and according to earlier researchers' method [Chiba et al., 2003; Murakami et al., 2007; Tousen et al., 2011], 0.03 ug of 17β-estradiol (Sigma-Aldrich, St. Louise, Mo., USA) was dissolved in 0.2 ml of sterile saline, and subcutaneously administered to back skin at a dose of 0.2 ml/mouse (0.03 μg/head/day) once daily for 84 days from 28 days after OVX surgery (Table 15, FIG. 18). The administration dose of mixed formula was set higher 12 times than a human clinical dose of 600 mg, i.e., 600 mg/60 kg)×12=120 mg/kg, in consideration of a body surface area of mouse, and the dose of each of red clover extract and pomegranate extract single formula was also set as 120 mg/kg for direct comparative evaluation of efficacy.
That is, all experimental animals except sham control were randomly selected and underwent bilateral ovariectomy to induce estrogen deficient menopausal disorder. On the other hand, in sham operated group, both ovaries were detected by the same method but incisions were not made, and abdominal cavities were closed again. At 27 days after surgery, based on body weights (OVX mice: 30.71±1.65 g, 28.0-35.1 g; sham operated mice: 26.99±1.46 g, 24.4-28.7 g), 8 mice per group were selected from all experimental animals including sham operated group, and used for experiments.
More specifically, the anti-obesity and estrogen-like effects were tested as follows. The body weights on OVX surgery date, 1 day before administration (27 days after OVX), the start date of administration, and from the first day after start of administration up to the time of final sacrifice at least once a week were each recorded, and change amounts of body weights, i.e., body weight gains, for the recovery period after OVX (menopausal disorder induction period) and 12 weeks after start of administration were measured. […]

[2] = test system: OVX ddY mice; assay: Abdominal fat pad, uterus and liver weights in OVX ddY mice
Method: as §1
(§2) More specifically, the anti-obesity and estrogen-like effects were tested as follows. The body weights on OVX surgery date, 1 day before administration (27 days after OVX), the start date of administration, and from the first day after start of administration up to the time of final sacrifice at least once a week were each recorded, and change amounts of body weights, i.e., body weight gains, for the recovery period after OVX (menopausal disorder induction period) and 12 weeks after start of administration were measured. Food consumption (1, 3, 7, 28, 56 and 83 days after start of administration), serum estradiol levels, amounts of body fat and abdominal fat, weights of abdominal fat pad and uterus, histological changes of uterus and abdominal fat pads (changes in abdominal fat pad thickness and mean adipocyte diameter, thickness of uterus total, epithelium and mucosa, and percentage of uterine glands in the mucosa (FIG. 19) were observed.
(§3) Furthermore, to ascertain the protective effect against fatty liver, testing was conducted as follows. Liver weight, serum AST and ALT levels, and histological changes of liver (changes in mean hepatocyte diameter and region with hepatic degeneration showing fatty change) were observed.

[3] = test system: OVX ddY mice; assay: Femur weights in OVX ddY mice
Method: as §1
(§4) The osteoporosis reduction effect was ascertained through histological changes in wet, dry and ash weights of femurs, BMD (FIG. 20), bone strength (FIG. 21), serum osteocalcin and bALP levels, bone mass and structure (trabecular bone mass, trabecular bone number, thickness and length, and cortical bone thickness), and bone resorption (osteoclast cell number and osteoclast cell surface (OS/BS)).

[4] = test system: OVX ddY mice; assay: Serum biochemistry in OVX ddY mice
Method: as §1, §2, §3
The hyperlipidemia inhibitory effect was ascertained through changes in serum TC, LDL, HDL and TG levels.
as §4

[5] = test system: OVX ddY mice; assay: Bone mineral density and fat density (DEXA) in OVX ddY mice
Method: as §1, §2, §4

[6] = test system: OVX ddY mice; assay: Femur bone strength (failure load) in OVX ddY mice
Method: Bone strength is measured through failure load (FL).
as §1, with “efficacy. […]” for “efficacy.”

[7] = test system: OVX ddY mice; assay: Histology of abdominal fat pad, uterus and liver in OVX ddY mice
Method: as §1, §2, §3

[8] = test system: OVX ddY mice; assay: Femur histomorphometry in OVX ddY mice
Method: as §1, §4

C[C@]12CC[C@@H]3c4ccc(O)cc4CC[C@H]3[C@@H]1CC[C@@H]2O [Estradiol, 17β-estradiol]
Body weight at sacrifice [1]: 35.68 ± 2.19^ab g | Body weight gain, treatment [D-C] [1]: 6.96 ± 1.21^fg | Change in body weight gain for duration of administration vs OVX control [1]: −52.56% | Change in food consumption vs OVX control, day 1 [1]: 0.87% | Change in food consumption vs OVX control, day 3 [1]: −5.24% | Change in food consumption vs OVX control, day 7 [1]: −13.04% | Change in food consumption vs OVX control, day 28 [1]: −16.34% | Change in food consumption vs OVX control, day 56 [1]: −20.01% | Change in food consumption vs OVX control, day 83 [1]: −27.82% | Food consumption, day 1 [1]: 11.49 ± 1.41^a g/24 hrs/rat | Food consumption, day 3 [1]: 10.53 ± 0.93^a g/24 hrs/rat | Food consumption, day 7 [1]: 9.82 ± 0.93^ac g/24 hrs/rat | Food consumption, day 28 [1]: 9.52 ± 1.01^ab g/24 hrs/rat | Food consumption, day 56 [1]: 10.24 ± 0.98^ab g/24 hrs/rat | Food consumption, day 83 [1]: 10.65 ± 1.54^de g/24 hrs/rat | Abdominal fat pad absolute wet-weight [2]: 0.600 ± 0.536^bc g | Abdominal fat pad relative wet-weight [2]: 1.656 ± 1.432^bc % of body weight | Change in abdominal fat pad absolute weight vs OVX control [2]: −82.20% | Change in abdominal fat pad relative weight vs OVX control [2]: −78.86% | Change in absolute liver weight vs OVX control [2]: 5.37% | Change in relative liver weight vs OVX control [2]: 27.16% | Change in uterus absolute weight vs OVX control [2]: 288.64% | Change in uterus relative weight vs OVX control [2]: 372.56% | Liver absolute wet-weight [2]: 1.324 ± 0.073 g | Liver relative wet-weight [2]: 3.724 ± 0.307^c % of body weight | Uterus absolute wet-weight [2]: 0.107 ± 0.040^ac g | Uterus relative wet-weight [2]: 0.303 ± 0.124^ac % of body weight | Change in femur absolute ash weight vs OVX control [3]: 30.35% | Change in femur absolute dry weight vs OVX control [3]: 14.93% | Change in femur absolute wet weight vs OVX control [3]: 5.79% | Change in femur relative ash weight vs OVX control [3]: 57.03% | Change in femur relative dry weight vs OVX control [3]: 38.22% | Change in femur relative wet weight vs OVX control [3]: 27.75% | Femur absolute ash weight [3]: 0.033 ± 0.002^ac g | Femur absolute dry weight [3]: 0.058 ± 0.004^gi | Femur absolute wet weight [3]: 0.094 ± 0.007 g | Femur relative ash weight [3]: 0.092 ± 0.007^ac % of body weight | Femur relative dry weight [3]: 0.162 ± 0.016^gi % of body weight | Femur relative wet weight [3]: 0.264 ± 0.032^ac % of body weight | Change in serum AST level vs OVX control (first series) [4]: −33.98% | Change in serum AST level vs OVX control (second series) [4]: −31.58% | Change in serum HDL level vs OVX control [4]: 52.09% | Change in serum LDL level vs OVX control [4]: −26.87% | Change in serum TC level vs OVX control [4]: −25.94% | Change in serum TG level vs OVX control [4]: −34.80% | Change in serum bALP level vs OVX control [4]: 39.72% | Change in serum estradiol level vs OVX control [4]: 185.69% | Change in serum osteocalcin level vs OVX control [4]: −31.95% | Serum ALT [4]: 52.00 ± 10.03^ac U/L | Serum AST [4]: 107.13 ± 12.43^ac U/L | Serum HDL [4]: 72.63 ± 11.04^ac mg/dl | Serum LDL [4]: 133.00 ± 10.54^ac mg/dl | Serum TC [4]: 132.75 ± 21.06^ac mg/dl | Serum TG [4]: 97.88 ± 18.16^ac mg/dl | Bone mineral density, right femur [5]: 0.0259 ± 0.0008^bc g/cm^2 | Bone mineral density, total body [5]: 0.0237 ± 0.0004^ac g/cm^2 | Change in amount of abdominal fat vs OVX control [5]: −35.00% | Change in amount of body fat vs OVX control [5]: −33.02% | Change in mean total body bone mineral density vs OVX control [5]: 9.86% | Change in total femur bone mineral density vs OVX control [5]: 10.78% | Fat density, abdominal cavity [5]: 26.75 ± 4.22^ac % of body mass | Fat density, total body [5]: 23.42 ± 4.24^ac % of body mass | Change in bone strength of femur mid-shaft region vs OVX control [6]: 61.41% | Change in abdominal fat pad thickness vs OVX control [7]: −52.23% | Change in mean adipocyte diameter vs OVX control [7]: −48.06% | Change in mean hepatocyte diameter vs OVX control [7]: −42.21% | Change in percentage of uterine glands in the uterine mucosa vs OVX control [7]: 180.37% | Change in region with hepatic fatty degeneration vs OVX control [7]: −44.73% | Change in uterine epithelium mean thickness vs OVX control [7]: 170.17% | Change in uterine mucosa mean thickness vs OVX control [7]: 196.04% | Change in uterus total mean thickness vs OVX control [7]: 181.27% | Hepatic steatosis regions [7]: 43.43 ± 6.53^ac % | Left uterine horn epithelium thickness [7]: 20.75 ± 4.52^ac μm | Left uterine horn mucosa layer thickness [7]: 598.74 ± 153.51^ac μm | Left uterine horn total thickness [7]: 1593.32 ± 371.85^bc μm | Mean adipocyte diameters [7]: 67.49 ± 14.77^ac μm | Mean hepatocyte diameters [7]: 18.45 ± 3.66^ac μm | Uterine gland regions [7]: 34.93 ± 4.60^ac % | Change in femur OS/BS vs OVX control [8]: −37.50% | Change in femur cortical bone thickness vs OVX control [8]: 21.85% | Change in femur mean trabecular bone number vs OVX control [8]: 92.68% | Change in femur osteoclast cell number vs OVX control [8]: −55.15% | Change in femur trabecular bone mass vs OVX control [8]: 73.01% | Change in mean length of femur trabecular bone vs OVX control [8]: 89.04% | Change in mean thickness of femur trabecular bone vs OVX control [8]: 70.56% | Left femur Cbt [8]: 184.17 ± 8.40^eg | Left femur OS/BS [8]: 13.12 ± 1.41^eg | Left femur Ocn [8]: 7.63 ± 1.06^ab | Left femur TV/BV [8]: 29.89 ± 5.24^ab | Left femur Tbl [8]: 905.51 ± 146.34^g | Left femur Tbn [8]: 9.88 ± 1.36^eg | Left femur Tbt [8]: 55.34 ± 8.99^eg

From patent publication US10709750B2, “Female menopause alleviation use of composition containing composite extract of red clover and pomegranate as active ingredient” (HLSCIENCE CO., LTD, priority 2014, dated 2020)
